Measured values from ChEMBL document CHEMBL5303304, “EUbOPEN Chemogenomics Library - IncuCyte” (2023).

What was measured:
Format in all cases: toxicity, cell-based
HEK-293T = experiment: Incucyte cell viability with HEK293T; conditions: human, 10 µM, compound concentration 10 uM
Fibroblast = experiment: Incucyte cell viability with human fibroblast; conditions: 10 µM, compound concentration 10 uM
U2OS = experiment: Incucyte cell viability with U2OS; conditions: human, 10 µM, compound concentration 10 uM
Further: unitless GR value; below 1 slowed growth and below 0 cell loss.

Row | Structure (SMILES) | Growth Rate (HEK-293T; 6 h, replicate number 1) | Growth Rate (HEK-293T; 6 h, replicate number 2) | Growth Rate (HEK-293T; 12 h, replicate number 1) | Growth Rate (HEK-293T; 12 h, replicate number 2) | Growth Rate (HEK-293T; 18 h, replicate number 1) | Growth Rate (HEK-293T; 18 h, replicate number 2) | Growth Rate (HEK-293T; 24 h, replicate number 1) | Growth Rate (HEK-293T; 24 h, replicate number 2) | Growth Rate (Fibroblast; 6 h, replicate number 1) | Growth Rate (Fibroblast; 12 h, replicate number 1) | Growth Rate (Fibroblast; 18 h, replicate number 1) | Growth Rate (U2OS; 12 h, replicate number 1) | Growth Rate (U2OS; 18 h, replicate number 1) | Growth Rate (U2OS; 18 h, replicate number 2) | Growth Rate (U2OS; 24 h, replicate number 2) | Growth Rate (Fibroblast; 6 h, replicate number 2) | Growth Rate (Fibroblast; 12 h, replicate number 2) | Growth Rate (Fibroblast; 18 h, replicate number 2) | Growth Rate (U2OS; 0 h, replicate number 2) | Growth Rate (Fibroblast; 24 h, replicate number 2) | other results
1 | COc1cc(-c2cc(-c3cccc(O)c3)cnc2N)cc(OC)c1OC | -0.66 | 0.38 | -0.58 | 0.41 | -0.43 | 0.33 | -0.24 | 0.42 | -0.21 | -1 | 0.59 | 0.89 | 0.73 | 0.85 | 0.86 | – | – | – | – | – | Growth Rate (Fibroblast; 0 h, replicate number 1): 0.1; Growth Rate (Fibroblast; 0 h, replicate number 2): -0.98; Growth Rate (U2OS; 12 h, replicate number 2): 0.96; Growth Rate (U2OS; 24 h, replicate number 1): 0.75
2 | O=C(NCc1cccnc1OCC(F)(F)F)c1cncc(-c2ccc(Cl)cc2)c1 | 0.82 | – | – | – | 0.84 | – | 0.81 | – | – | – | -0.38 | 0.98 | – | – | – | -1 | 0.57 | 0.96 | -0.65 | – | Growth Rate (Fibroblast; 24 h, replicate number 1): 0.21; Growth Rate (U2OS; 6 h, replicate number 1): 0.44
3 | C[C@@H](NC(=O)Cc1ccc(C2CC2)cc1)c1ccc(OCC(F)(F)F)cn1 | 0.39 | 0.17 | – | 0.64 | – | 0.63 | – | 0.68 | 0.85 | -1 | -0.27 | – | – | 0.79 | 0.87 | -0.99 | 0.67 | 0.93 | -0.85 | 0.89 | Growth Rate (Fibroblast; 0 h, replicate number 1): -0.4; Growth Rate (Fibroblast; 24 h, replicate number 1): 0.8; Growth Rate (U2OS; 0 h, replicate number 1): -0.06; Growth Rate (U2OS; 6 h, replicate number 2): 0.67; Growth Rate (U2OS; 12 h, replicate number 2): 0.53
4 | CCc1cncnc1N1CCN(Cc2nc3cc(C(F)(F)F)ccc3[nH]2)CC1 | 0.41 | 0.28 | 0.53 | 0.34 | 0.65 | 0.48 | 0.88 | 0.58 | 1 | -1 | 0.44 | 0.51 | 0.53 | 0.57 | 0.84 | -0.99 | 0.78 | – | -0.83 | 0.93 | Growth Rate (Fibroblast; 0 h, replicate number 1): 0.88; Growth Rate (Fibroblast; 24 h, replicate number 1): 0.31; Growth Rate (U2OS; 6 h, replicate number 1): 0.31; Growth Rate (U2OS; 6 h, replicate number 2): 0.19; Growth Rate (U2OS; 12 h, replicate number 2): 0.49; Growth Rate (U2OS; 24 h, replicate number 1): 0.7
5 | Cc1nnsc1C(=O)Nc1ccc(-n2nc(C(F)(F)F)cc2C(F)(F)F)cc1 | 0.1 | -0.01 | 0.96 | 0.28 | 0.7 | 0.39 | 0.58 | 0.42 | 0.37 | -1 | – | 0.51 | 0.97 | 0.63 | 0.68 | -0.36 | 0.73 | 0.94 | -0.95 | 0.74 | Growth Rate (Fibroblast; 0 h, replicate number 2): 0.89; Growth Rate (U2OS; 6 h, replicate number 1): 0.52; Growth Rate (U2OS; 6 h, replicate number 2): -0.02; Growth Rate (U2OS; 12 h, replicate number 2): 0.42; Growth Rate (U2OS; 24 h, replicate number 1): 0.9
6 | Nc1n[nH]c2nc(-c3ccc(NS(=O)(=O)c4cccc(Cl)c4Cl)cc3)cnc12 | 0.93 | 0.42 | 0.83 | 0.81 | – | 0.84 | – | 0.95 | -0.19 | -0.95 | – | – | – | – | – | -1 | – | – | – | – | Growth Rate (Fibroblast; 0 h, replicate number 1): 0.67; Growth Rate (Fibroblast; 0 h, replicate number 2): -0.78; Growth Rate (U2OS; 0 h, replicate number 1): 0.36
7 | COCCNc1nc2ccc(C#CC3(O)CCCCC3)cc2n1-c1ccnc(N)n1 | 0.37 | – | – | 1 | – | 0.96 | – | 0.84 | -0.48 | -1 | 0.24 | 0.77 | 0.85 | 0.73 | 0.78 | -1 | -0.26 | 0.28 | – | 0.18 | Growth Rate (Fibroblast; 24 h, replicate number 1): 0.3; Growth Rate (U2OS; 6 h, replicate number 1): 0.44; Growth Rate (U2OS; 6 h, replicate number 2): 0.8; Growth Rate (U2OS; 12 h, replicate number 2): 0.69; Growth Rate (U2OS; 24 h, replicate number 1): 0.92
8 | CCNCCNC(=O)c1c(C)[nH]c(/C=C2\C(=O)Nc3ccc(F)cc32)c1C | -0.62 | -0.16 | -0.52 | -0.09 | -0.32 | 0.09 | -0.09 | 0.21 | -0.96 | -1 | – | – | 0.78 | 0.77 | 0.7 | – | 0.44 | 0.18 | -0.6 | 0.1 | Growth Rate (U2OS; 24 h, replicate number 1): 0.69
9 | Cc1cc(O)c(-c2ccc([C@@H](C)CN(C)C)cc2)c2c1[nH]c(=O)c1sccc12 | -0.94 | -0.93 | -0.89 | -0.74 | -0.72 | -0.54 | -0.64 | -0.41 | -1 | – | – | 0.42 | 0.16 | 0.08 | -0.1 | -0.58 | -0.46 | -0.35 | -0.95 | -0.3 | Growth Rate (Fibroblast; 0 h, replicate number 1): 0.34; Growth Rate (Fibroblast; 0 h, replicate number 2): 0.6; Growth Rate (Fibroblast; 24 h, replicate number 1): 0.28; Growth Rate (U2OS; 0 h, replicate number 1): -0.87; Growth Rate (U2OS; 12 h, replicate number 2): 0.43; Growth Rate (U2OS; 24 h, replicate number 1): -0.11
10 | COc1ccccc1-n1nc(C2CC(C)(C)OC(C)(C)C2)cc1-c1ccc(Cl)cc1 | -0.05 | -0.13 | 0.46 | 0.41 | 0.79 | 0.54 | 0.95 | 0.64 | – | – | -0.27 | 0.85 | 0.94 | 0.96 | 0.95 | -1 | 0.99 | 0.87 | -0.66 | – | Growth Rate (Fibroblast; 0 h, replicate number 1): -0.49; Growth Rate (U2OS; 6 h, replicate number 2): 0.41; Growth Rate (U2OS; 12 h, replicate number 2): 0.93; Growth Rate (U2OS; 24 h, replicate number 1): 0.94
11 | C[C@@H](Cn1c(=O)[nH]/c(=N\c2ccc(Oc3ccccn3)cc2)n(Cc2ccc(Cl)cc2)c1=O)C(=O)O | 0.2 | 0.62 | – | – | 0.97 | – | – | – | -0.1 | – | – | 0.97 | 0.99 | – | – | -1 | 0.04 | 0.75 | -0.83 | 0.85 | Growth Rate (U2OS; 6 h, replicate number 2): 0.93
12 | Cc1ccc(-c2c(C(=O)CF)n(CCCO)c3ncnc(N)c23)cc1 | -0.57 | 0.16 | 0.54 | 0.68 | 0.96 | 0.85 | – | 0.87 | – | – | 0.29 | 0.92 | – | 0.96 | 0.98 | -1 | -0.21 | 0.3 | -0.79 | 0.41 | Growth Rate (Fibroblast; 24 h, replicate number 1): 0.33; Growth Rate (U2OS; 0 h, replicate number 1): 0.43; Growth Rate (U2OS; 6 h, replicate number 2): 0.44
13 | Cl.Cl.O=C1c2ccccc2C(Cc2ccncc2)(Cc2ccncc2)c2ccccc21 | 0.32 | 0.89 | 0.55 | 0.97 | 0.62 | 0.63 | 0.6 | 0.63 | – | -1 | 0.1 | – | – | 0.92 | 0.88 | – | – | – | -0.7 | 0.89 | Growth Rate (U2OS; 0 h, replicate number 1): -0.47; Growth Rate (U2OS; 6 h, replicate number 2): 0.24; Growth Rate (U2OS; 12 h, replicate number 2): 0.75
14 | CC[C@]1(C)C[C@@H](OC(=O)CSc2nnc(N)[nH]2)[C@@]2(C)[C@H](C)CC[C@@]3(CCC(=O)[C@H]32)[C@@H](C)[C@@H]1O | 0.09 | 0.46 | 0.86 | 0.81 | 0.65 | 0.83 | 0.84 | 0.87 | -0.17 | – | 0.7 | 0.98 | 0.95 | – | – | -0.93 | 0.82 | 0.99 | – | 0.97 | Growth Rate (Fibroblast; 0 h, replicate number 2): -0.62
